In paper doi:10.1101/2023.09.04.556216v2 (bioRxiv, 2023):
Numbered stars: 1 amine (or outer) side, 2 acyl side, 3 side chain; on linkers, the order of the positions; unused ones are H or OH. Bridge positions count the residues as written; N and C are the ends. Peptide text beside a SMILES is read from it. Biphenyl(4,4'-CH2)2 = c1cc(-c2ccc(C[*:2])cc2)ccc1C[*:1]

Experiments:
[1] = test system: PCa cells; assay: EdU labeling of cell proliferation; type: cell-based; details: 15 μM peptide, EdU labeling 2 h
[2] = test system: PC3 or DU145; assay: Colony formation assay; type: cell-based; details: 15 μM peptide, PC3 or DU145, n=3
[3] = molecular target: METTL3 (Homo sapiens, UniProt Q86U44); assay: Western blot of METTL3/METTL14 level and half-life; type: cell-based; details: for METTL3 half-life: PC3 cells pre-treated with cycloheximide (CHX), WB, 25 μM over 12 h; for METTL3 (and METTL14) protein levels by WB: PC3 cells, RSM3 25 μM, 12 h
[4] = test system: PC3 xenograft tumor; assay: PC3 xenograft tumor model; type: in vivo, BALB/c nude mice; details: for decrease of Ki67 in tumor (IHC) / increase of caspase-3 expression in tumor (IHC) / reduction in METTL3 expression in tumor (IHC) / reduction in m6A levels in tumor (IHC): 20 mg/kg peritumoral; for reduction in METTL3 expression in tumor (IHC) / reduction in m6A levels in tumor (IHC): compared to R9 and PBS groups; for average tumor mass relative to PBS group: 20 mg/kg, 10 days of treatment, Fig. S19c
[5] = test system: m6A modification; assay: m6A ELISA in cells; type: cell-based; details: PC3 or DU145 cells, Fig. 5f
[6] = molecular target: METTL3/METTL14 complex (Homo sapiens, UniProt Q86U44); assay: Co-Immunoprecipitation of METTL3 and METTL14; type: cell-based; details: Co-IP, quantitative analysis, Fig. S11
[7] = test system: PC3 cells; assay: Cell viability; type: cell-based; parameters: unit not given beside the values; details: comparison experiment Fig. S17, unit not given
[8] = test system: PC3 cells; assay: Flow cytometry cell cycle analysis, PC3; type: cell-based; details: 15 µM, 12 h, PBS group ∼8.5%
[9] = Serum stability in 25% FBS; type: in vitro ADME, bovine; details: 25% FBS (serum:buffer 1:3), pH 7.4
[10] = test system: ASPC-1 xenograft tumors; assay: ASPC-1 xenograft tumor model; type: in vivo, mice; details: 20 mg/kg, 10 days of treatment
[11] = test system: DU145 cells; assay: Cell viability; type: cell-based; parameters: unit not given beside the values; details: comparison experiment Fig. S17, unit not given
[12] = test system: DU145; assay: Annexin V-FITC flow cytometry apoptosis, DU145; type: cell-based; details: 15 μM peptide, PBS ∼5%
[13] = test system: PC3 cells; assay: Annexin V-FITC flow cytometry apoptosis, PC3; type: cell-based; details: 15 μM peptide
[14] = peri-tumoral injection 20 mg/kg every two days for two weeks

METTL3, sequence (Q86U44 whole entry): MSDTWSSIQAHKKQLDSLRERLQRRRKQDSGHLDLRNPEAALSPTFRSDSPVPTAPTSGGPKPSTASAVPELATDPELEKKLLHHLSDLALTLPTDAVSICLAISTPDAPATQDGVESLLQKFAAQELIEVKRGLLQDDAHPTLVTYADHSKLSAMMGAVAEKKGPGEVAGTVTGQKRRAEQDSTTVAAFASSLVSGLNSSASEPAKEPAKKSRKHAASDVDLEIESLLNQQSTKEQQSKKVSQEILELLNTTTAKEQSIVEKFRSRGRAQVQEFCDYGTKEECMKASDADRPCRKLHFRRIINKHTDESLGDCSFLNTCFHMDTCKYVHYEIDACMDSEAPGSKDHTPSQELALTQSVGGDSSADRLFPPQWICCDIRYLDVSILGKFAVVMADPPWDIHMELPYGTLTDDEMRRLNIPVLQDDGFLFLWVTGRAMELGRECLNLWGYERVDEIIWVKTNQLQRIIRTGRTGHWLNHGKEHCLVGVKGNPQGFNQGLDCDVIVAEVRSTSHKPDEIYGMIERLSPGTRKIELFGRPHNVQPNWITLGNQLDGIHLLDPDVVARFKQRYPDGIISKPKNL
METTL3/METTL14 complex, sequence (Q86U44 whole entry, one chain of several): as the sequence (Q86U44 whole entry) above

Compound	EdU signal relative to PBS control group [1] [%]	fold reduction in colony formation [2] [fold]	METTL3 half-life [3]	decrease of Ki67 in tumor (IHC) [4] [%]	increase of caspase-3 expression in tumor (IHC) [4] [fold]	reduction in METTL3 expression in tumor (IHC) [4] [%]	reduction in m6A levels in tumor (IHC) [4] [%]	tumor growth compared to R9 or PBS control groups [4, 14]	m6A modification level relative to R9 and PBS treatment groups [5] [%]	IC50 in PC3, RSM3 vs STM2457 [7]	METTL3 (and METTL14) protein levels by WB [3]	IC50 in DU145, RSM3 vs STM2457 [11]	average tumor mass relative to PBS group [4] [%]	also measured
CSCC[C@H](NC(=O)[C@H](CS)NC(=O)[C@H](CCCNC(=N)N)NC(=O)[C@H](CCCNC(=N)N)NC(=O)[C@H](CCCNC(=N)N)NC(=O)[C@H](CCCNC(=N)N)NC(=O)[C@H](CCCNC(=N)N)NC(=O)[C@H](CCCNC(=N)N)NC(=O)[C@H](CCCNC(=N)N)NC(=O)[C@H](CCCNC(=N)N)NC(=O)[C@H](CCCNC(=N)N)NC(=O)[C@@H](N)CCCNC(=N)N)C(=O)N[C@@H](CCC(=O)O)C(=O)N[C@@H](CC(C)C)C(=O)NCC(=O)N[C@@H](CCCNC(=N)N)C(=O)N[C@@H](CCC(=O)O)C(=O)N[C@@H](CS)C(=O)N[C@@H](CC(C)C)C(=O)N[C@@H](CC(N)=O)C(=O)N[C@@H](CC(C)C)C(=O)N[C@@H](Cc1c[nH]c2ccccc12)C(N)=O [RM3] (H-RRRRRRRRRRCMELGRECLNLW-NH2; N-terminus assumed)	~47.0	~20	dramatically reduced half-life	~65	~1.8	~50	~50	significant suppression of tumor growth	~20	–	–	–	–	–
CSCC[C@@H]1NC(=O)[C@@H](NC(=O)[C@H](CCCNC(=N)N)NC(=O)[C@H](CCCNC(=N)N)NC(=O)[C@H](CCCNC(=N)N)NC(=O)[C@H](CCCNC(=N)N)NC(=O)[C@H](CCCNC(=N)N)NC(=O)[C@H](CCCNC(=N)N)NC(=O)[C@H](CCCNC(=N)N)NC(=O)[C@H](CCCNC(=N)N)NC(=O)[C@H](CCCNC(=N)N)NC(=O)[C@@H](N)CCCNC(=N)N)CSCc2ccc(cc2)-c2ccc(cc2)CSC[C@@H](C(=O)N[C@@H](CC(C)C)C(=O)N[C@@H](CC(N)=O)C(=O)N[C@@H](CC(C)C)C(=O)N[C@@H](Cc2c[nH]c3ccccc23)C(N)=O)NC(=O)[C@H](CCC(=O)O)NC(=O)[C@H](CCCNC(=N)N)NC(=O)CNC(=O)[C@H](CC(C)C)NC(=O)[C@H](CCC(=O)O)NC1=O [RSM3] (H-RRRRRRRRRRCMELGRECLNLW-NH2; linker 11-18 via Biphenyl(4,4'-CH2)2; N-terminus assumed)	~35.0	~20	dramatically reduced half-life	~65	~1.8	~50	~50	significant suppression of tumor growth	~20	26.5 ± 1.2	reduced	33.6 ± 1.5	~37	reduction of METTL3-METTL14 interaction [6]: fifty; cells arrested in sub-G1 phase, PC3 [8]: ~29.2%; remaining at 6 h, 200 µM [9]: ~41.8%; tumor weight, lighter than PBS- and R9-treated controls [10]: ~50%; tumor volume, fold smaller than controls [4, 14]: 2∼3 fold; cells that entered apoptosis, DU145 [12]: ~30%; late-stage share of total apoptotic PC3 cells [13]: ~90%; proportion of apoptotic cells, fold higher than RM3 [13]: approximately 2 fold; cells that entered apoptosis, PC3 ([13]; PBS 4%): ~60%
STM2457 [reference compound]	–	–	–	–	–	–	–	–	–	95.5 ± 3.6	no influence	149.3 ± 10.1	70	–
